Measurements: PubChem BioAssay (NCI)
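The compound was tested at five concentrations on cells cultured in 96-well plates, with a 48-hour exposure period. Here, GI50 denotes the concentration required for 50% inhibition of growth. TGI is the concentration that stops growth completely.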

How the values were obtained:
Test in all cases: inhibition of tumour cell growth, NCI panel, 48 h
[1] = tested on: SR leukemia
[2] = tested on: RPMI-8226 leukemia
[3] = tested on: SW-620 colon
[4] = tested on: BT-549 breast
[5] = tested on: MALME-3M melanoma
[6] = tested on: NCI-H23 lung
[7] = tested on: K-562 leukemia
[8] = tested on: HT29 colon
[9] = tested on: KM12 colon
[10] = tested on: OVCAR-8 ovarian

## CS(=O)(=O)c1nccc(-c2c(-c3cccc(OCc4ccc(F)cc4)c3)nc3sccn23)n1
[1]
  GI50: 5450 nM
  TGI: > 100 µM
[2]
  GI50: 5.16 µM
  TGI: > 51 µM
[3]
  GI50: 5.32 µM
  TGI: > 100 µM
[4]
  GI50: 8.89 µM
  TGI: > 100 µM
[5]
  GI50: 67.3 µM
  TGI: > 100 µM
[6]
  GI50: 11.7 µM
  TGI: > 100 µM
[7]
  GI50: 6.67 µM
  TGI: > 100 µM
[8]
  GI50: 53.9 µM
  TGI: > 100 µM
[9]
  GI50: 2.95 µM
  TGI: 7.61 µM
[10]
  GI50: 59.9 µM
  TGI: > 100 µM

## c1ccc2c(c1)O[As](O[As]1Oc3ccccc3O1)O2
[1]
  GI50: 1610 nM
  TGI: 7.39 µM
[2]
  GI50: 1.07 µM
  TGI: 4.61 µM
[3]
  GI50: 3.01 µM
  TGI: 14.8 µM
[4]
  GI50: 1.22 µM
  TGI: 6.55 µM
[5]
  GI50: 2.32 µM
  TGI: 5.21 µM
[7]
  GI50: 1.66 µM
  TGI: 7.28 µM
[8]
  GI50: 2.75 µM
  TGI: 8.74 µM
[9]
  GI50: 7.79 µM
  TGI: 20.6 µM
[10]
  GI50: 2.59 µM
  TGI: 15.4 µM

## COc1ccc2c(c1)Oc1nc(N)c(C#N)c(N)c1C2Sc1ccc(SC)cc1 (stereo unspecified)
[1]
  GI50: 2250 nM
  TGI: 6.66 µM
[2]
  GI50: 2.86 µM
  TGI: 6.43 µM
[4]
  GI50: 1.63 µM
  TGI: 3 µM
[5]
  GI50: 1.78 µM
  TGI: 3.35 µM
[7]
  GI50: 2.71 µM
  TGI: 10.3 µM
[8]
  GI50: 2.2 µM
  TGI: 4.36 µM
[9]
  GI50: 1.78 µM
  TGI: 3.49 µM
[10]
  GI50: 1.76 µM
  TGI: 3.19 µM

## C=CC1CC12C(=O)C1OC2(C)C2C(=O)c3ccccc3C(=O)C12 (stereo unspecified)
[2]
  GI50: 28.2 µM
  TGI: 99.2 µM
[3]
  GI50: 45.3 µM
  TGI: > 100 µM
[4]
  GI50: > 72.9 µM
  TGI: > 100 µM
[5]
  GI50: 21.3 µM
  TGI: 59.1 µM
[6]
  GI50: 39.4 µM
  TGI: > 59.8 µM
[7]
  GI50: 2.3 µM
  TGI: 6.94 µM
[8]
  GI50: > 61.6 µM
  TGI: > 100 µM
[9]
  GI50: > 45.3 µM
  TGI: > 80.8 µM
[10]
  GI50: > 42.8 µM
  TGI: > 85.8 µM

## COc1ccc(C(CC(=O)c2ccccc2)C(C(=O)c2ccccc2)C(c2ccc(OC)cc2)C2C(=O)NC(=O)NC2=O)cc1 (stereo unspecified)
[2]
  GI50: 13.8 µM
  TGI: > 100 µM
[3]
  GI50: 26.3 µM
  TGI: > 100 µM
[4]
  GI50: 21.9 µM
  TGI: 92.8 µM
[5]
  GI50: 33.1 µM
  TGI: > 100 µM
[6]
  GI50: 37.3 µM
  TGI: > 100 µM
[7]
  GI50: 39.1 µM
  TGI: > 100 µM
[9]
  GI50: 19.1 µM
  TGI: > 100 µM
[10]
  GI50: 24.7 µM
  TGI: 68.7 µM

## CC1=CC[C@@H]2[C@@H](CC[C@@]2(C)O)C(C)(C)[C@H]1CC[C@@H]1[C@@]2(C)CCC(=O)C(C)(C)O[C@@H]2CC[C@]1(C)O
[1]
  TGI: 59.4 µM
[2]
  TGI: 51.1 µM
[3]
  TGI: > 100 µM
[4]
  TGI: 57.8 µM
[6]
  TGI: > 100 µM
[9]
  TGI: 29.6 µM
[10]
  TGI: 62.1 µM

## O=C1OCC(c2ccc(O)c(O)c2)=C1c1cc(O)c(O)c(O)c1
[2]
  GI50: 26.2 µM
  TGI: 79 µM
[3]
  GI50: 21.1 µM
  TGI: 42.8 µM
[4]
  GI50: 39 µM
  TGI: > 100 µM
[5]
  GI50: > 100 µM
  TGI: > 100 µM
[6]
  GI50: 19.2 µM
  TGI: 38.2 µM
[7]
  GI50: 21.2 µM
  TGI: 46.1 µM
[8]
  GI50: 32.5 µM
  TGI: 98.2 µM
[9]
  GI50: 23.8 µM
  TGI: 55.6 µM
[10]
  GI50: 75 µM
  TGI: > 100 µM

## CC(C)C1CN1CC(O)Cn1ccnc1[N+](=O)[O-] (stereo unspecified)
[3]
  TGI: > 100 µM
[4]
  TGI: > 100 µM
[5]
  TGI: > 100 µM
[6]
  TGI: > 100 µM
[7]
  TGI: > 100 µM
[8]
  TGI: > 100 µM
[9]
  TGI: > 100 µM
[10]
  TGI: > 100 µM

## O=S(=O)(Nc1ccc(-c2nc(-c3cccc(OCCN4CCOCC4)c3)c(-c3ccnc(Br)c3)[nH]2)cc1)c1ccccc1
[1]
  GI50: 2620 nM
  TGI: > 100 µM
[2]
  GI50: 2.5 µM
  TGI: > 100 µM
[3]
  GI50: 3.53 µM
  TGI: > 100 µM
[4]
  GI50: 3.02 µM
  TGI: > 100 µM
[5]
  GI50: 2.2 µM
  TGI: 56.9 µM
[6]
  GI50: 2.43 µM
  TGI: 8.71 µM
[7]
  GI50: 2.32 µM
  TGI: > 100 µM
[9]
  GI50: 3.21 µM
  TGI: > 100 µM
[10]
  GI50: 3.27 µM
  TGI: > 100 µM

## Nc1ccccc1C#C/C=C\C#Cc1ccc(F)cc1F
[2]
  GI50: 1.36 µM
  TGI: 34.3 µM
[3]
  GI50: 36.9 µM
  TGI: > 100 µM
[4]
  GI50: 12.1 µM
  TGI: 27.5 µM
[5]
  GI50: 6.11 µM
  TGI: 22.5 µM
[6]
  GI50: 13.3 µM
  TGI: 32.2 µM
[7]
  GI50: 4.98 µM
  TGI: > 100 µM
[8]
  GI50: 31.1 µM
  TGI: > 100 µM
[9]
  GI50: 4.17 µM
  TGI: 19.6 µM
[10]
  GI50: 25.2 µM
  TGI: 84.3 µM

## Cc1cccc(C)c1NC(=O)CCC(=O)NNC(=O)c1cc(O)c2ccccc2c1
[1]
  TGI: > 100 µM
[2]
  TGI: > 100 µM
[3]
  TGI: > 100 µM
[5]
  TGI: > 100 µM
[6]
  TGI: 88 µM
[7]
  TGI: > 100 µM
[8]
  TGI: > 100 µM
[9]
  TGI: > 100 µM
[10]
  TGI: 87.4 µM
